Assay results taken from PubChem BioAssay AID328 (DTP/NCI, 2004).
Values joined by “and” are separate entries in the source; they are usually repeats but may differ in a detail not shown here. Identical values can stand only once. Toxic doses and inconclusive results are not listed. Rule for the calls: active = survival T/C of 150% or more; inactive = T/C below 125% in these data.

Test system: BDF1 mice, P388 leukemia ip, median survival T/C
Test: NCI In Vivo Anticancer Drug Screen. Data for tumor model P388 Leukemia (intraperitoneal) in B6D2F1 (BDF1) mice
Conditions: endpoint: median survival time, higher = longer survival
Summary of the method: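 Vehicle-dosed animals serve as the reference; survival of compound-dosed, tumour-implanted mice is divided by it.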

[1] = dose: 400.0 mg/kg/injection, schedule: Q04DX003 (ip), vehicle: saline
[2] = dose: 100.0 mg/kg/injection, schedule: Q01DX001 (ip), vehicle: Klucel (hydroxypropylcellulose) (HPC)
[3] = dose: 12.5 mg/kg/injection, schedule: Q01DX009 (ip), vehicle: saline with Tween-80
[4] = dose: 25.0 mg/kg/injection, schedule: Q01DX009 (ip), vehicle: saline with Tween-80
[5] = dose: 50.0 mg/kg/injection, schedule: Q01DX009 (ip), vehicle: saline with Tween-80
[6] = dose: 100.0 mg/kg/injection, schedule: Q01DX009 (ip), vehicle: saline with Tween-80
[7] = dose: 100.0 mg/kg/injection, schedule: Q01DX009 (ip), vehicle: saline
[8] = dose: 100.0 mg/kg/injection, schedule: Q04DX003 (ip), vehicle: saline
[9] = dose: 200.0 mg/kg/injection, schedule: Q04DX003 (ip), vehicle: saline with Tween-80
[10] = dose: 300.0 mg/kg/injection, schedule: Q04DX003 (ip), vehicle: saline with Tween-80
[11] = dose: 100.0 mg/kg/injection, schedule: Q04DX003 (ip), vehicle: saline with Tween-80
[12] = dose: 200.0 mg/kg/injection, schedule: Q01DX009 (ip), vehicle: saline with Tween-80
[13] = dose: 400.0 mg/kg/injection, schedule: Q01DX009 (ip), vehicle: saline with Tween-80
[14] = dose: 400.0 mg/kg/injection, schedule: Q04DX003 (ip), vehicle: saline with Tween-80
[15] = dose: 50.0 mg/kg/injection, schedule: Q04DX003 (ip), vehicle: saline with Tween-80

Measured: T/C

NC(Cc1cccc(NP(=S)(N2CC2)N2CC2)c1)C(=O)O (stereo unspecified)
inactive: dose: 22.0 mg/kg/injection, schedule: Q04DX003 (ip), vehicle: saline 120 % of control | dose: 35.0 mg/kg/injection, schedule: Q04DX003 (ip), vehicle: saline 112 % of control | dose: 600.0 mg/kg/injection, schedule: Q04DX003 (ip), vehicle: saline 86 % of control
active: dose: 50.0 mg/kg/injection, schedule: Q04DX003 (ip), vehicle: saline 150 % of control | dose: 115.0 mg/kg/injection, schedule: Q04DX003 (ip), vehicle: saline 172 % of control | dose: 175.0 mg/kg/injection, schedule: Q04DX003 (ip), vehicle: saline 268 % of control | dose: 264.0 mg/kg/injection, schedule: Q04DX003 (ip), vehicle: saline 272 % of control | [1] 272 % of control

Nc1nc(=S)c2[nH]c(N=Nc3ccc(S(=O)(=O)Nc4nccs4)cc3)nc2[nH]1
inactive: dose: 25.0 mg/kg/injection, schedule: Q01DX001 (ip), vehicle: Klucel (hydroxypropylcellulose) (HPC) 115 % of control | [2] 117 % of control | dose: 200.0 mg/kg/injection, schedule: Q01DX001 (ip), vehicle: Klucel (hydroxypropylcellulose) (HPC) 120 % of control

CCCCCCCCCCC(C)c1ccc(S(=O)(=O)O)cc1 (stereo unspecified)
inactive: [3] 103 % of control | [4] 110 % of control | dose: 33.0 mg/kg/injection, schedule: Q01DX009 (ip), vehicle: saline with Tween-80 120 % of control | [5] 115 % of control and 116 % of control and 118 % of control | dose: 75.0 mg/kg/injection, schedule: Q01DX009 (ip), vehicle: saline with Tween-80 110 % of control | [6] 119 % of control

CC(C)N(CC#N)C(C)C
inactive: dose: 0.25 mg/kg/injection, schedule: Q04DX003 (ip), vehicle: saline with Tween-80 91 % of control | dose: 0.5 mg/kg/injection, schedule: Q04DX003 (ip), vehicle: saline with Tween-80 101 % of control

CCNc1nncs1
inactive: dose: 30.0 mg/kg/injection, schedule: Q01DX009 (ip), vehicle: saline 116 % of control | dose: 38.0 mg/kg/injection, schedule: Q04DX003 (ip), vehicle: saline with Tween-80 100 % of control | dose: 44.0 mg/kg/injection, schedule: Q01DX009 (ip), vehicle: saline 114 % of control | dose: 58.0 mg/kg/injection, schedule: Q04DX003 (ip), vehicle: saline with Tween-80 100 % of control | dose: 88.0 mg/kg/injection, schedule: Q04DX003 (ip), vehicle: saline with Tween-80 108 % of control | [8] 86 % of control | dose: 150.0 mg/kg/injection, schedule: Q01DX009 (ip), vehicle: saline 105 % of control | dose: 225.0 mg/kg/injection, schedule: Q01DX009 (ip), vehicle: saline 95 % of control
active: [7] 150 % of control and 168 % of control | [9] 165 % of control | [10] 196 % of control

O=C(c1cccnc1)C1Cc2ccccc2C1=O (stereo unspecified)
inactive: [6] 100 % of control | [11] 100 % of control | [12] 100 % of control | [9] 100 % of control | [13] 91 % of control | [14] 104 % of control

CC(C)c1nc(-c2ccccc2)c(-c2ccccc2)[nH]1
inactive: [11] 100 % of control | [9] 104 % of control | [14] 100 % of control

CC1(C)N=C(N)N=C(N)N1c1cccc(CCCCc2ccc(S(=O)(=O)F)cc2Cl)c1
inactive: dose: 3.13 mg/kg/injection, schedule: Q01DX009 (ip), vehicle: saline sonified 109 % of control | dose: 4.0 mg/kg/injection, schedule: Q01DX009 (ip), vehicle: saline 116 % of control | dose: 4.0 mg/kg/injection, schedule: Q04DX003 (ip), vehicle: saline with Tween-80 100 % of control | dose: 6.0 mg/kg/injection, schedule: Q04DX003 (ip), vehicle: saline with Tween-80 113 % of control | dose: 6.25 mg/kg/injection, schedule: Q01DX009 (ip), vehicle: saline 116 % of control | dose: 9.0 mg/kg/injection, schedule: Q04DX003 (ip), vehicle: saline with Tween-80 118 % of control | dose: 9.4 mg/kg/injection, schedule: Q01DX009 (ip), vehicle: saline 116 % of control

CCOC(=O)C1Cc2c([nH]c(=S)[nH]c2=O)OC1c1ccccc1 (stereo unspecified)
inactive: [3] 100 % of control | [4] 90 % of control | [5] 104 % of control

CC(O)(C(=O)O)c1ccccc1 (stereo unspecified) (tested in a mixture with another compound)
inactive: dose: 100.0 mg/kg/injection, schedule: Q01DX001 (ip), vehicle: saline 103 % of control | [8] 100 % of control | dose: 200.0 mg/kg/injection, schedule: Q01DX001 (ip), vehicle: saline 107 % of control | dose: 200.0 mg/kg/injection, schedule: Q04DX003 (ip), vehicle: saline 113 % of control | dose: 400.0 mg/kg/injection, schedule: Q01DX001 (ip), vehicle: saline 107 % of control | [1] 95 % of control

N=C(N)SCc1c2ccccc2cc2ccccc12
active: [9] 163 % of control
inactive: [10] 90 % of control

COc1cc(O)c2c(c1O)C(=O)c1cc(C)ncc1C2=O
inactive: [6] 91 % of control | [12] 91 % of control | [13] 91 % of control

CC(=O)CC(=O)NC(C)CCc1ccccc1 (stereo unspecified)
inactive: [11] 104 % of control | [9] 109 % of control | [14] 109 % of control

S=c1sc(-c2ccc(Cl)cc2)c[se]1
inactive: dose: 0.78 mg/kg/injection, schedule: Q01DX009 (ip), vehicle: saline with Tween-80 97 % of control | dose: 1.56 mg/kg/injection, schedule: Q01DX009 (ip), vehicle: saline with Tween-80 109 % of control | dose: 3.13 mg/kg/injection, schedule: Q01DX009 (ip), vehicle: saline with Tween-80 93 % of control and 100 % of control | [3] 93 % of control

O=C1CCCSc2ccccc21
inactive: dose: 100.0 mg/kg/injection, schedule: Q01DX009 (ip), vehicle: Klucel (hydroxypropylcellulose) (HPC) 120 % of control | dose: 100.0 mg/kg/injection, schedule: Q04DX003 (ip), vehicle: Klucel (hydroxypropylcellulose) (HPC) 100 % of control | dose: 200.0 mg/kg/injection, schedule: Q01DX009 (ip), vehicle: Klucel (hydroxypropylcellulose) (HPC) 115 % of control | dose: 200.0 mg/kg/injection, schedule: Q04DX003 (ip), vehicle: Klucel (hydroxypropylcellulose) (HPC) 100 % of control | dose: 400.0 mg/kg/injection, schedule: Q01DX009 (ip), vehicle: Klucel (hydroxypropylcellulose) (HPC) 115 % of control | dose: 400.0 mg/kg/injection, schedule: Q04DX003 (ip), vehicle: Klucel (hydroxypropylcellulose) (HPC) 100 % of control

CO/C(O)=c1/nc2c(n(C)c1=N)=CCCC2
inactive: [5] 100 % of control | [6] 104 % of control

CC1=C(C)Cc2c(c(OC(=O)c3ccccc3)cc(Cl)c2OC(=O)c2ccccc2)C1
inactive: dose: 12.5 mg/kg/injection, schedule: Q04DX003 (ip), vehicle: saline with Tween-80 94 % of control | dose: 25.0 mg/kg/injection, schedule: Q04DX003 (ip), vehicle: saline with Tween-80 94 % of control | [15] 92 % of control | [11] 90 % of control | [9] 93 % of control | [14] 94 % of control

O=S(=O)(C=C(N1CCCCC1)N1CCCCC1)Cc1ccccc1
inactive: dose: 8.75 mg/kg/injection, schedule: Q01DX009 (ip), vehicle: saline 105 % of control | dose: 17.5 mg/kg/injection, schedule: Q01DX009 (ip), vehicle: saline 115 % of control | dose: 26.25 mg/kg/injection, schedule: Q04DX003 (ip), vehicle: saline 108 % of control | dose: 35.0 mg/kg/injection, schedule: Q01DX009 (ip), vehicle: saline 105 % of control | dose: 52.5 mg/kg/injection, schedule: Q04DX003 (ip), vehicle: saline 104 % of control

OCC#CCO
inactive: dose: 12.0 mg/kg/injection, schedule: Q01DX001 (ip), vehicle: saline 95 % of control | dose: 25.0 mg/kg/injection, schedule: Q01DX001 (ip), vehicle: saline 113 % of control | dose: 50.0 mg/kg/injection, schedule: Q01DX001 (ip), vehicle: saline 109 % of control

NC(=O)c1ncc(-c2ccccc2)[nH]c1=O
inactive: dose: 50.0 mg/kg/injection, schedule: Q01DX009 (ip), vehicle: saline 104 % of control | [7] 100 % of control | dose: 200.0 mg/kg/injection, schedule: Q01DX009 (ip), vehicle: saline 109 % of control

CC(=O)OCc1cc(=O)n(C)c2c3c4c(cc12)c(C)cc(=O)n4CO3
inactive: [2] 120 % of control

CCC(=O)c1cc([N+](=O)[O-])ccc1N
inactive: [15] 90 % of control | [11] 95 % of control | [9] 109 % of control
